# In the NIST ThermoML archive (doi:10.1021/je060271a):
# Numbers after ± are expanded uncertainties.
# Conditions: 303.15 K, Liquid, Vibrating tube method
compound,measurement,setting,value
CCCCC(=O)OCC(COC(=O)CCCC)(COC(=O)CCCC)COC(=O)CCCC [pentaerythritol tetrapentanoate],mass density,29848 kPa,1028.9 ± 1.2 kg/m3
same,mass density,29879 kPa,1028.8 ± 1.2 kg/m3
same,mass density,29916 kPa,1029 ± 1.2 kg/m3
same,mass density,29948 kPa,1028.9 ± 1.2 kg/m3
same,mass density,29979 kPa,1029 ± 1.2 kg/m3
same,mass density,30016 kPa,1028.9 ± 1.2 kg/m3
same,mass density,30047 kPa,1028.9 ± 1.2 kg/m3
same,mass density,30079 kPa,1029 ± 1.2 kg/m3
same,mass density,30118 kPa,1029 ± 1.2 kg/m3
same,mass density,30150 kPa,1029.1 ± 1.2 kg/m3
same,mass density,30185 kPa,1029 ± 1.2 kg/m3
same,mass density,30217 kPa,1029 ± 1.2 kg/m3
same,mass density,30249 kPa,1029.1 ± 1.2 kg/m3
same,mass density,30286 kPa,1029 ± 1.2 kg/m3
same,mass density,30319 kPa,1029.1 ± 1.2 kg/m3
same,mass density,30352 kPa,1029.1 ± 1.2 kg/m3
same,mass density,30390 kPa,1029 ± 1.2 kg/m3
same,mass density,30423 kPa,1029.2 ± 1.2 kg/m3
same,mass density,30461 kPa,1029.1 ± 1.2 kg/m3
same,mass density,30493 kPa,1029.2 ± 1.2 kg/m3
same,mass density,30526 kPa,1029.2 ± 1.2 kg/m3
same,mass density,30566 kPa,1029.2 ± 1.2 kg/m3
same,mass density,30598 kPa,1029.2 ± 1.2 kg/m3
same,mass density,30631 kPa,1029.2 ± 1.2 kg/m3
same,mass density,30665 kPa,1029.4 ± 1.2 kg/m3
same,mass density,30705 kPa,1029.3 ± 1.2 kg/m3
same,mass density,30738 kPa,1029.3 ± 1.2 kg/m3
same,mass density,30777 kPa,1029.3 ± 1.2 kg/m3
same,mass density,30810 kPa,1029.3 ± 1.2 kg/m3
same,mass density,30844 kPa,1029.4 ± 1.2 kg/m3
same,mass density,30884 kPa,1029.4 ± 1.2 kg/m3
same,mass density,30917 kPa,1029.4 ± 1.2 kg/m3
same,mass density,30951 kPa,1029.4 ± 1.2 kg/m3
same,mass density,30991 kPa,1029.5 ± 1.2 kg/m3
same,mass density,31025 kPa,1029.5 ± 1.2 kg/m3
same,mass density,31060 kPa,1029.6 ± 1.2 kg/m3
same,mass density,31101 kPa,1029.5 ± 1.2 kg/m3
same,mass density,31135 kPa,1029.5 ± 1.2 kg/m3
same,mass density,31170 kPa,1029.5 ± 1.2 kg/m3
same,mass density,31204 kPa,1029.6 ± 1.2 kg/m3
same,mass density,31246 kPa,1029.7 ± 1.2 kg/m3
same,mass density,31280 kPa,1029.5 ± 1.2 kg/m3
same,mass density,31315 kPa,1029.6 ± 1.2 kg/m3
same,mass density,31350 kPa,1029.6 ± 1.2 kg/m3
same,mass density,31392 kPa,1029.7 ± 1.2 kg/m3
same,mass density,31427 kPa,1029.7 ± 1.2 kg/m3
same,mass density,31462 kPa,1029.8 ± 1.2 kg/m3
same,mass density,31504 kPa,1029.8 ± 1.2 kg/m3
same,mass density,31540 kPa,1029.7 ± 1.2 kg/m3
same,mass density,31576 kPa,1029.8 ± 1.2 kg/m3
same,mass density,31610 kPa,1029.8 ± 1.2 kg/m3
same,mass density,31653 kPa,1029.9 ± 1.2 kg/m3
same,mass density,31688 kPa,1029.9 ± 1.2 kg/m3
same,mass density,31731 kPa,1029.9 ± 1.2 kg/m3
same,mass density,31767 kPa,1029.8 ± 1.2 kg/m3
same,mass density,31803 kPa,1029.9 ± 1.2 kg/m3
same,mass density,31846 kPa,1030 ± 1.2 kg/m3
same,mass density,31882 kPa,1030 ± 1.2 kg/m3
same,mass density,31918 kPa,1029.9 ± 1.2 kg/m3
same,mass density,31954 kPa,1030 ± 1.2 kg/m3
same,mass density,31996 kPa,1030 ± 1.2 kg/m3
same,mass density,32033 kPa,1030 ± 1.2 kg/m3
same,mass density,32078 kPa,1030.1 ± 1.2 kg/m3
same,mass density,32115 kPa,1030.2 ± 1.2 kg/m3
same,mass density,32152 kPa,1030.1 ± 1.2 kg/m3
same,mass density,32188 kPa,1030.1 ± 1.2 kg/m3
same,mass density,32232 kPa,1030.1 ± 1.2 kg/m3
same,mass density,32269 kPa,1030.2 ± 1.2 kg/m3
same,mass density,32306 kPa,1030.2 ± 1.2 kg/m3
same,mass density,32351 kPa,1030.4 ± 1.2 kg/m3
same,mass density,32387 kPa,1030.3 ± 1.2 kg/m3
same,mass density,32432 kPa,1030.3 ± 1.2 kg/m3
same,mass density,32470 kPa,1030.3 ± 1.2 kg/m3
same,mass density,32507 kPa,1030.3 ± 1.2 kg/m3
same,mass density,32544 kPa,1030.2 ± 1.2 kg/m3
same,mass density,32590 kPa,1030.4 ± 1.2 kg/m3
same,mass density,32628 kPa,1030.3 ± 1.2 kg/m3
same,mass density,32667 kPa,1030.6 ± 1.2 kg/m3
same,mass density,32714 kPa,1030.4 ± 1.2 kg/m3
same,mass density,32752 kPa,1030.4 ± 1.2 kg/m3
